Experiment: Stability of -PH2 compounds under storage and reaction conditions
Assay type: physicochemical
Settings: variety of solvents, wide pH range and temperature range
Excerpt: As a result of working with the NH2(CH2)3 PH2 intermediate, it was recognized that the intermediate was unexpectedly stable under a variety of storage and reaction conditions.
Furthermore, the reactivity of the —PH2 groups in these compounds toward molecules containing a wide spectrum of functional groups (including carboxylic acids, amines, thiols, and proteins) was remarkably low or non-measurable.

## NCCCP [NH2(CH2)3 PH2, 3-Aminopropylphosphine]
  stability under storage and reaction conditions: reasonably stable

Reference: patent US6635235B1, “Bifunctional chelating agent for the design and development of site specific radiopharmaceuticals and biomolecule conjugation strategy” (The Curators of the University of Missouri, priority 1999, dated 2003)
